Measurements as given in patent publication US8097605B2, “Combination of anticholinergics and inhibitors of phosphodiesterase type 4 for the treatment of respiratory disease” (Meda Pharma GmbH & Co. KG, priority 2004, dated 2012).

How the values were obtained:
M1-M3 receptors = details: cited from earlier work
M3 muscarinic receptors = M3 muscarinic receptors (Homo sapiens, UniProt P20309); details: kinetics studies; cited from earlier work
[1] = tested on: allergen-induced airway eosinophilia; details: Brown Norway rats, administered intrapulmonary; cited from earlier work
[2] = dog, in vivo, 15 mg/kg; cited from earlier work
[3] = tested on: human peripheral blood mononuclear cells (PBMCs); test: LPS-induced TNFα release from human PBMCs/monocytes (sandwich ELISA); type: cell-based; details: LPS 1 μg/ml
Protocol: The influence of R,R-glycopyrrolate in combination with PDE4 inhibitors on TNF secretion was investigated by using human peripheral blood mononuclear cells (PBMCs). The study was approved by our institutional Ethics Committee according to the International Declarations of Helsinki and Tokyo.
PBMCs were isolated from heparinized blood samples of healthy donors by density gradient centrifugation. An equal volume of Hanks buffer (Life Technologies, Heidelberg, Germany) is added to heparinized whole blood samples. 15 ml Histopaque-1077 (Sigma, Deisenhofen, Germany) are overlayed with a maximum of 40 ml of blood/Hanks mixture were centrifuged for 30 min at room temperature (2000 rpm). A visible band containing PBMCs is transferred to a fresh tube and washed twice with Hanks-buffer. Finally cells are seeded in RPMI 1640 Medium (Life Technologies, Heidelberg, Germany) with Glutamax I (Gibco BRL, Eggenstein) and 10% fetal calf serum (Boehringer Mannheim, Penzberg, Germany). After isolated, PBMCs were cultured in RPMI 1640 medium supplemented with 10% fetal calf serum (FCS) at 37° C. 5% CO2 overnight. […] by adherence method, non-adherent cells were removed by changing the medium.
Cells are re-suspended at 10^6 cells/ml and incubated in 500 μl volumes in 24-well tissue culture plates (Falcon Becton Dickinson Labware) at 37° C., 5% CO2. After pre-incubation with test substances (0.5 μl/500 μl medium) for 30 min, cells were stimulated with lipopolysaccharide (LPS) (1 μg/ml). […]
Cytokine measurements in culture supernatants are done by sandwich ELISA using matched antibody pairs (Pharmingen, Heidelberg, Germany). […] Plates are read at 450 nm (reference 570 nm) in a microplate reader (Dynatech). The results are expressed as a percentage of the control level of cytokines production by cells stimulated in the absence of the compound.

Sequence of M3 muscarinic receptors (P20309 whole entry): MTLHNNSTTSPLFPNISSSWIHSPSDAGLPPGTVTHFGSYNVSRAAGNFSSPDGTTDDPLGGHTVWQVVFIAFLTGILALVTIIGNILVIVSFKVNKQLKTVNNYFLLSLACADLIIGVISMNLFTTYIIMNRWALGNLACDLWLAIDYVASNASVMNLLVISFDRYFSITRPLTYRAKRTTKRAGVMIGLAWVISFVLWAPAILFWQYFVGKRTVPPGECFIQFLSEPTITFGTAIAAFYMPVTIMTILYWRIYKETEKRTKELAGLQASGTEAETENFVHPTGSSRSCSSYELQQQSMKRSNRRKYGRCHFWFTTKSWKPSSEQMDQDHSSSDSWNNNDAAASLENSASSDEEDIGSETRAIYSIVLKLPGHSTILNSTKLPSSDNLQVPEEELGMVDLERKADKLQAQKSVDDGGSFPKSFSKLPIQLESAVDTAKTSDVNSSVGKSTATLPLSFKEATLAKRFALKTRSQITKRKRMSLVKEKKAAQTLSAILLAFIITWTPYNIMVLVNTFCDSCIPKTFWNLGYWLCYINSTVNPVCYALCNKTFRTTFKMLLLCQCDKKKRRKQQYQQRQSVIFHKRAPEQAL

C[N+]1(C)CCC(OC(=O)C(O)(c2ccccc2)C2CCCC2)C1 (racemic) [Glycopyrrolate]
selectivity in binding to the M1-M3 receptors (M1-M3 receptors): no selectivity
dissociation from M3 muscarinic receptors (M3 muscarinic receptors): dissociates slowly

O=C(Nc1c(Cl)cncc1Cl)C(=O)c1cn(Cc2ccc(F)cc2)c2ccc(O)cc12 [AWD 12-281]
ID50 suppression of allergen-induced airway eosinophilia [1]: 7 µg/kg
emesis [2]: no emesis was induced

C[N+]1(C)CC[C@@H](OC(=O)[C@](O)(c2ccccc2)C2CCCC2)C1.[Br-] [R,R-glycopyrrolate]
influence on LPS-induced TNFα release ([3]; compound alone, up to 10 μmol/l): did not influence

C[C@H]1C[C@H]2[C@@H]3CCC4=CC(=O)C=C[C@]4(C)[C@@]3(Cl)[C@@H](O)C[C@]2(C)[C@@]1(O)C(=O)CO [beclomethasone]
ID50 suppression of allergen-induced airway eosinophilia [1]: 0.1 µg/kg

COc1ccc(C2CNC(=O)C2)cc1OC1CCCC1 (centres unmarked) [rolipram]
IC35 of TNFα release inhibition ([3]; rolipram alone): 68.9 ± 15.2 nM
IC35 of TNFα release inhibition with simultaneous addition of R,R-glycopyrrolate ([3]; rolipram plus 10 μmol/l R,R-glycopyrrolate, p=0.0151): 1.70 ± 1.18 nM
